The numbers were not newly measured in patent publication US10507188B2, “Particles containing an opioid receptor antagonist and methods of use” (priority 2008, dated 2019), which cites them from elsewhere.

The conditions of the series: white crystalline powder, typically the bromide salt (Mallinckrodt).

As to `C[N+]1(CC2CC2)CCC23c4c5ccc(O)c4OC2C(=O)CCC3(O)C1C5` (stereo not shown) [MNTX, N-methylnaltrexone], the solubility in water result is on record as “freely soluble in water”.
